Reference: US7959956B2, “Method for treating diabetic complications” (Korea Institute of Oriental Medicine, Ltd., priority 2004, dated 2011)
Each block holds one molecule with its values, some of them ahead of it.

What was measured:
[1] = tested on: streptozotocin diabetes-induced SD rats; experiment: Streptozotocin diabetic rats: body weight, feed and water intake; assay type: in vivo, rat
From the text: Four-week-old SD male rats weighing 120-140 g were housed in cages at one animal for each cage and allowed for access to general solid food and water while adapting the animals to an animal room of this institute (the applicant).
(§1) The test animals were divided into the following four groups: (1) a normal group administered with carboxymethyl cellulose (NC+CMC); (2) a diabetes-induced group administered with carboxymethylcellulose (DC+CMC); (3) a diabetes-induced group administered with the herbal extract mixture (DC+HMP); (4) and a diabetes-induced group administered with a positive control (Eparlestat) (DC+S11). The diabetes-induced groups each consisted of 9-10 animals, and the normal group consisted of 5-6 animals. The body weights of the animals were similar between the test groups.
(§2) The test animals were adapted to the animal room and then fasted overnight. Streptozotocin was dissolved in 0.1 M citrate buffer (pH 4.5), and just then, injected into the abdominal cavities of the fasted animals at a dose of 60 mg/kg. At 2 days after administering the streptozotocin solution, tail vein blood was sampled from the animals and examined for blood glucose level. Rats having a blood glucose level of more than […] were determined to be diabetes-induced rats.
To examine a therapeutic effect against chronic diabetic complications, the rats was continued to maintain in diabetic conditions for 30 days. From day 31, the rats were administered with the drugs for 8 weeks.
Since the herbal extract mixture (HMP) and Epalrestat (S11) used in the tests are insoluble in water, they were dissolved in 1% carboxymethylcellulose before use. The normal group was administered with carboxylmethylcellulose so as to eliminate an effect caused by carboxylmethylcellulose.
(§3) For the two diabetes-induced groups other than the normal group, each of 1 g/kg of the herbal extract mixture (HMP) and 25 mg/kg of Epalrestat (S11) was dissolved in 1% CMC and administered orally to the rats by a sonde daily for 8 weeks.
After administering the samples during the administration period, the test animals were fasted for at least 15 hours at one day before autopsy, and then measured for body weight.
The body weight was measured every day, the feed intake was measured one time a week, and the water intake was measured every day.

[2] = tested on: streptozotocin diabetes-induced SD rats; experiment: Streptozotocin diabetic rats: organ weight; assay type: in vivo, rat; conditions: oral daily 8 weeks
From the text: as §1, §2, §3
One day before autopsy, the test animals were fasted for at least 15 hours and then measured for body weight. Then, the animals were anesthetized with ethyl ether, from which blood was collected via the abdominal aorta. Some of the collected blood was treated with heparin, and some of whole blood was centrifuged at 3,000 rpm and 4° C. for 15 minutes. From each of the blood samples, plasma was isolated and stored at −80° C. before use in data analysis.
The kidneys of the animals were removed after washing by perfusion and measured for weight. Next, the kidneys were separated into cortex and medulla, which were rapidly cooled and stored at −80° C. In addition, the liver, lungs, pancreas, spleen and heart were separated and measured for weight.

[3] = tested on: streptozotocin diabetes-induced SD rats; experiment: Streptozotocin diabetic rats: biochemical factors in serum; assay type: in vivo, rat; conditions: oral daily 8 weeks; for Glucose level: plasma
From the text: as §1, §2, §3
At two-week intervals up to before autopsy, blood was taken from the orbital veins and measured for plasma glucose level with a glucose kit. The plasma glucose level was measured at 500 nm UV by a glucose oxidase method.
BUN was determined by measuring absorbance at 580 nm by a urease-indophenol method.
Triglyceride content was quantified by measuring absorbance at 550 nm by an enzymatic method (POD).
Total cholesterol level was determined by measuring absorbance at 500 nm by an enzymatic method.
Creatinine was determined by measuring absorbance at 515 nm by a modified Jaffe's method.
Protein in serum was determined by BCA assay. Serum was reacted with a bicinchonicic acid solution of bicinchonicic acid, Na2CO3, NaHCO3 and C4H4O6Na2.2H2O in 0.1N NaOH and a 4% CuSO4.5H2O solution and then measured for absorbance at 562 nm.

[4] = tested on: streptozotocin diabetes-induced SD rats; experiment: Streptozotocin diabetic rats: anti-cataract effect (eye lens opacity); assay type: in vivo, rat; conditions: for Eye lens's opacity (%): mean
From the text: as §1, §2, §3
From the eyeballs removed under a microscope, the eye lenses were separated and transferred onto 24-well plates each containing 2 ml of a saline solution. Then, the eye lenses were photographed with a digital camera. The opacity of the eye lenses was analyzed by the use of an imaging system program.
The eye lenses were photographed with a camera and measured for weight. Then, the eye lenses were placed in phosphate buffer (pH 6.9) and homogenized at 4° C. For use in the measurement of enzymatic activity, some of the homogenized solution was centrifuged at 3,000 rpm for 20 minutes, and the supernatant was collected and stored at −80° C. For use in the measurement of content of sorbitol, etc., the remaining homogenized solution was added with ZnSO4 and NaOH so as to remove protein, and centrifuged at 3,000 rpm for 20 minutes, and the supernatant was collected and stored at −80° C.
The results of visual observation for the eyeballs are shown in FIG. 9, and the results of camera observation for the eye lenses are shown in FIG. 10.

[5] = tested on: production of advanced glycation endproducts (bovine serum albumin + sugar mixture); experiment: Inhibition of production of advanced glycation endproducts (BSA + fructose/glucose, fluorescence); assay type: biochemical
Experimental: As a protein source, bovine serum albumin (hereinafter, referred to as “BSA”; Sigma, USA) was used. BSA was dissolved in 50 mM phosphate buffer (pH 7.4) to a concentration of 10 mg/ml.
As a sugar source, a mixture of 0.1 M fructose and 0.1 M glucose was used.
This sugar mixture was added to the prepared BSA solution, for use in tests.
The herbal extract mixture prepared in Example 2 was dissolved in 15% Tween80, and this solution was added to the BSA-sugar mixture and cultured at 37° C. for 30 days. At this time, 0.02% sodium azide was used as an antibacterial agent.
As a control group, a culture consisting of BSA and the sugar mixture was cultured, and as blanks to the control and test groups, the materials for the test group and the materials for the control group were used after preparation without incubation.
In order to reduce errors to the lowest possible extent, 4 samples for each group were used. Just before culturing, the samples were filled with nitrogen gas (99.999% purity) in order to prevent them being contaminated. After 30 days, the content of advanced glycation endproducts in the culture media was analyzed. The advanced glycation endproducts are fluorescent, show a brown color, are crosslinkable, and have ligands which can be recognized by cellular membrane receptors. The amount of the advanced glycation endproducts with such properties was measured with a spectrophotometer (excitation at 350 nm and release at 450 nm) so as to determine the inhibition of production of the advanced glycation endproducts.
The inhibition (%) of production of advanced glycation endproducts was calculated according to the following equation: Inhibition (%) of production=100−[(fluorescent intensity of test group−fluorescent intensity of blank to test group)/(fluorescent intensity of control group−fluorescent intensity of blank to control group)]×100
The part (1) of this Example was repeated except that extract from each of Euphorbiae radix, gingered Magnolia bark, parched Puerariae radix and Glycyrrhizae radix was dissolved in 15% Tween80 and cultured for 90 days.
Magnolol was dissolved in distilled water at concentrations of 3.33 μg/ml, 6.66 μg/ml, 13.32 μg/ml and 26.6 μg/ml, and then cultured for 37° C. for 30 days in the same manner as in the above part (1).
aminoguanidine, a positive control group, was tested in the same manner as in the above part (1) except that aminoguanidine was dissolved in distilled water at selected concentrations and cultured for 30 days and 90 days.

[6] = diabetes-induced rats, oral daily 8 weeks

Compound: CC(/C=C1\SC(=S)N(CC(=O)O)C1=O)=C\c1ccccc1 [Epalrestat]
Body weight, early stage ([1]; oral daily 8 weeks (HMP 1 g/kg, S11 25 mg/kg), early stage): 154.03 ± 45.46 g
Body weight, end stage ([1]; oral daily 8 weeks (HMP 1 g/kg, S11 25 mg/kg), end stage): 283.24 ± 42.60 g
Heart absolute weight [2]: 0.95 ± 0.11 g
Heart relative weight (%) [2]: 0.34 ± 0.03 %
Kidneys absolute weight [2]: 3.18 ± 0.30 g
Kidneys relative weight (%) [2]: 1.14 ± 0.11 %
Liver absolute weight [2]: 11.63 ± 1.08 g
Liver relative weight (%) [2]: 4.15 ± 0.40 %
Lungs absolute weight [2]: 1.55 ± 0.13 g
Lungs relative weight (%) [2]: 0.55 ± 0.06 %
Pancreas absolute weight [2]: 0.86 ± 0.11 g
Pancreas relative weight (%) [2]: 0.31 ± 0.05 %
Spleen absolute weight [2]: 0.54 ± 0.09 g
Spleen relative weight (%) [2]: 0.19 ± 0.02%
BUN [3]: 23.60 ± 5.15 mg/dL
Creatinin [3]: 1.22 ± 0.16 mg/dL
Total cholesterol [3]: 59.50 ± 13.88 mg/dL
Triglyceride [3]: 46.18 ± 8.26 mg/dL
Glucose level [3]: 197.94 mg/dL
Glucose level ([3]; listed as S11): 197.94 ± 76.66 mg/dL
Protein ([3]; serum, BCA assay): 10.79 ± 0.85 µg/µL
Eye lens's opacity (20 pixels/m^2) [4, 6]: 134.04 ± 45.00 20 pixels/m^2
Eye lens's opacity (%) ([4]; diabetes-induced rats, oral daily 8 weeks, listed as S11): 37.38 ± 13.56 %

Compound: C=CCc1ccc(O)c(-c2cc(CC=C)ccc2O)c1 [Magnolol, magnolol]
Inhibition (%) of production of advanced glycation endproducts ([5]; 3.33 μg/ml, cultured for 30 days): 36.36 ± 1.61%
Inhibition (%) of production of advanced glycation endproducts ([5]; 6.66 μg/ml, cultured for 30 days): 55.75 ± 2.11%
Inhibition (%) of production of advanced glycation endproducts ([5]; 13.32 μg/ml, cultured for 30 days): 77.05 ± 1.70%
Inhibition (%) of production of advanced glycation endproducts ([5]; 26.64 μg/ml, cultured for 30 days): 100%
IC50 (μg/ml), inhibition of production of advanced glycation endproducts ([5]; cultured for 30 days, 37° C.): 5.36 µg/mL

Compound: CC(/C=C1\SC(=S)N(CC(=O)O)C1=O)=C\c1ccccc1 [Epalrestat (S11)]
Feed intake compared to diabetes-induced group ([1]; oral daily 8 weeks): more feed than that of the diabetes-induced group
Water intake compared to diabetes-induced group ([1]; oral daily 8 weeks): more water than that of the diabetes-induced group
Increase in body weight ([1]; oral daily 8 weeks (HMP 1 g/kg, S11 25 mg/kg)): 129.21 g
Eye lens's opacity (%) [4, 6]: 37.38±13.56%
Animals with cataract symptoms in both eyeballs on the day of autopsy ([4]; visual observation of eyeballs, FIG. 9): four of seven

Inhibition (%) of production of advanced glycation endproducts ([5]; bovine, 30 days, 27.5 μg/ml, pH 7.4): 45.78 ± 2.400%
Inhibition (%) of production of advanced glycation endproducts ([5]; bovine, 30 days, 55 μg/ml, pH 7.4): 55.43 ± 4.000%
Inhibition (%) of production of advanced glycation endproducts ([5]; bovine, 30 days, 110 μg/ml, pH 7.4): 73.52 ± 1.750%
Inhibition (%) of production of advanced glycation endproducts ([5]; bovine, 30 days, 550 μg/ml, pH 7.4): 96.41 ± 2.200%
IC50 (μg/ml), inhibition of production of advanced glycation endproducts ([5]; bovine, 30 days, pH 7.4): 34.90 µg/mL
Inhibition (%) of production of advanced glycation endproducts ([5]; bovine, 90 days, 27.5 μg/ml, pH 7.4): 39.647 ± 3.406%
Inhibition (%) of production of advanced glycation endproducts ([5]; bovine, 90 days, 110 μg/ml, pH 7.4): 65.714 ± 5.394%
IC50 (μg/ml), inhibition of production of advanced glycation endproducts ([5]; bovine, 90 days, pH 7.4): 30.80 µg/mL
Compound: N=C(N)NN [Aminoguanidine, aminoguanidine]
